# US20220160686A1, “MACROCYCLIC AZOLOPYRIDINE DERIVATIVES AS EED AND PRC2 MODULATORS” (Fulcrum Therapeutics, Inc., priority 2019, published 2022)
# Experiments:
# HUDEP2 cells = experiment: Fetal hemoglobin (HbF) upregulation assay of HUDEP2 cells; type: cell-based
# Experimental: HUDEP2 cells were maintained and passaged every 2-3 days by seeding 300,000 viable cells/mL in a culture flask containing HUDEP2 Growth Media comprised of StemSpan SFEM (Stemcell Technologies #09650), 50 ng/mL human stem cell factor (Stemcell Technologies #78062.2), 3 IU/mL erythropoietin (ThermoFisher #PHC2054), 1 μM dexamethasone (Sigma #D2915), and […] doxycycline (Sigma #D3072). HUDEP2 cells were differentiated towards erythroid lineage by seeding at 25,000 viable cells/well in 96-well V-Bottom plates (Corning #3894) containing 135 μL HUDEP2 Differentiation Media comprised of Iscove's Modified Dulbecco's Medium (Stemcell Technologies #36150), 1% L-glutamine (ThermoFisher #25030081), 2% penicillin-streptomycin (ThermoFisher #15140122), 330 μg/mL holo-human transferrin (Sigma #T0665), 2 IU/mL heparin (Stemcell Technologies #07980), 10 μg/mL recombinant human insulin (Sigma #91077C), 3 IU/mL erythropoietin (ThermoFisher #PHC2054), 100 ng/mL human stem cell factor (Stemcell Technologies #78062.2), and 4% fetal bovine serum (ThermoFisher #A3160502). Chemical probes for treatment were resuspended in 100 μL of Iscove's Modified Dulbecco's Medium (Stemcell Technologies #36150) to a 10× concentration, and 15 μL of 10× concentrated chemical probes were added to each well for a total well volume of 150 μL. HUDEP2 cells were left to incubate at 37° C., 85% relative humidity, and 5% CO2 for 3 days. On Day 3, assay plates containing HUDEP2 cells were centrifuged at 500×g for 5 minutes. After centrifugation cells were pelleted to the bottom of the well, and 100 μL of media aspirated from the well without disturbing the cells. Then 90 μL of fresh HUDEP2 Differentiation Media and 10 μL of 10× concentrated chemical probes were added back each well. For the H3K27me3 assay, cells were harvested on Day 4 of treatment. The HUDEP2 cells were centrifuged at 500×g for 5 minutes and all media was aspirated from the well. Then 150 μL of phosphate buffered saline (ThermoFisher #10010023) was added to each well to resuspend the cells. Finally, 50 μL of the HUDEP2 cell suspension from each well was transferred to a poly-d-lysine coated 384-well plate (Corning Cat #356697) and centrifuged at 1000×g for 5 minutes before proceeding to ICC Fix and Stain Protocol. Assay plates for the HbF assay were returned to the incubator until Day 5, where the media was exchanged and chemical probes added exactly as on Day 3. On Day 7 of the HbF assay, the HUDEP2 cells were harvested in the same manner as described for the H3K27me3 assay before proceeding to ICC Fix and Stain Protocol.
# The Fix and Stain Protocol was the same for HEK293T, HUDEP2, and Primary CD34+ cell assays except the specific primary and secondary antibodies used for detection. Following 4 days of compound treatment, the respective plates were washed once with 25 μL of PBS (ThermoFisher #10010023) and fixed with 25 μL of 4% paraformaldehyde (ThermoFisher #28908) for 10 minutes at room temperature. The plates were then washed three times with 25 μL of PBS. Subsequent to that, the cells were permeabilized and blocked for 1 hour at room temperature in 25 μL of Perm/Block buffer comprised of IX PBS, 1% bovine serum albumin (ThermoFisher #A3294), 10% fetal bovine serum (ThermoFisher #A3160502), 0.3M glycine (Sigma #G7126), and 0.1% tween-20 (Sigma #P7949). This was followed by additional washing (three times) of the plates with 25 μL of 0.1% tween in PBS.
# Plates for the HbF assay were treated similarly as described above except that HbF Primary Antibody (ThermoFisher #MHFH01-4) diluted 1:40 in 0.1% tween-20 in PBS and Hoescht (ThermoFisher #H3570) diluted 1:2000 in 0.1% tween-20 in PBS were used for detection.
# (§1) The plates were then scanned on the CX7 at 10× magnification, and 9 images were acquired per well. The software algorithm then identified nuclei and calculated a total nuclei count using the Hoechst staining on channel 1. […]
# [1] = test system: Human Mobilized Peripheral Blood Primary CD34+ cells; experiment: Fetal hemoglobin (HbF) upregulation assay of CD34+ cells; type: cell-based
# Experimental: Human Mobilized Peripheral Blood Primary CD34+ cells were expanded from thaw by seeding 100,000 viable cells/mL in a culture flask containing CD34+ Expansion Media comprised of StemSpan SFEMII (Stemcell Technologies #09655), 1% erythroid expansion supplement (Stemcell Technologies #02692), and 1 μM dexamethasone (Sigma #D2915). The cells were supplemented by adding an additional IX culture volume of CD34+ Expansion Media on Day 3 after thaw. After 7 days of expansion, Primary CD34+ cells were differentiated towards erythroid lineage by seeding at 15,000 viable cells/well in 96-well V-Bottom plates (Corning #3894) containing 135 μL CD34+ Differentiation Media comprised of StemSpan SFEMII (Stemcell Technologies #09655), 3% normal human serum (Sigma #H4522), 3 IU/mL erythropoietin (ThermFisher #PHC2054). Chemical probes for treatment were resuspended in 100 μL of Iscove's Modified Dulbecco's Medium (Stemcell Technologies #36150) to a 10× concentration, and 15 μL of 10× concentrated chemical probe was added to each well for a total well volume of 150 μL. Primary CD34+ cells were left to incubate at 37° C., 85% relative humidity, and 5% C02 for 3 days. On Day 3, assay plates containing Primary CD34+ cells were centrifuged at 500×g for 5 minutes. After centrifugation cells were pelleted to the bottom of the well, and 100 μL of media aspirated from the well without disturbing the cells. Then 90 μL of fresh CD34+ Differentiation Media and 10 μL of 10× concentrated chemical probes were added back each well. For the H3K27me3 assay, cells were harvested on Day 4 of treatment. The Primary CD34+ cells were centrifuged at 500×g for 5 minutes and all media was aspirated from the well. Then 150 μL of phosphate buffered saline (ThermoFisher #10010023) was added to each well to resuspend the cells. Finally, 50 μL of the Primary CD34+ cell suspension from each well was transferred to a poly-d-lysine coated 384-well plate (Corning Cat #356697) and centrifuged at 1000×g for 5 minutes before proceeding to ICC Fix and Stain Protocol. Assay plates for the HbF assay were returned to the incubator until Day 5, where the media was exchanged and chemical probes added exactly as on Day 3. On Day 7 of the HbF assay, the Primary CD34+ cells were harvested in the same manner as described for the H3K27me3 assay before proceeding to ICC Fix and Stain Protocol. […]
# as §1, with “1. After nuclei were identified, the algorithm calculated the average nuclear intensity of the H3K27me3 or HbF staining on channel 2.” for “1.”
Compound,EC50 (HUDEP2 cells) [nM],EC50 [1] [nM]
"Cc1ncc(-c2cc3c(n4cnnc24)NCc2c(F)ccc4c2[C@@H](CO4)CO3)c(C)n1 [Compound 13, (S)-4-(2,4-dimethylpyrimidin-5-yl)-12-fluoro-7a,8,13,14-tetrahydro-7H-[1,2,4]triazolo[4′,3′:1,6]pyrido[3,2-b]benzofuro[4,3-fg][1,4]oxazonine]",50 to 100,
"Cc1cn(-c2cc3c(n4cnnc24)NCc2c(F)ccc4c2[C@@H](CO4)CO3)cn1 [Compound 15, (S)-12-fluoro-4-(4-methyl-1H-imidazol-1-yl)-7a,8,13,14-tetrahydro-7H-[1,2,4]triazolo[4′,3′:1,6]pyrido[3,2-b]benzofuro[4,3-fg][1,4]oxazonine]",,100 to 500
"Fc1cncnc1-c1cc2c(n3cnnc13)NCc1c(F)ccc3c1[C@@H](CO3)CO2 [Compound 164, (S)-12-fluoro-4-(5-fluoropyrimidin-4-yl)-7a,8,13,14-tetrahydro-7H-[1,2,4]triazolo[4′,3′:1,6]pyrido[3,2-b]benzofuro[4,3-fg][1,4]oxazonine]",,< 25
Cn1nccc1-c1cc2c(n3cnnc13)NCc1c(F)ccc3c1C(CO3)CO2 (stereo not shown) [Example 17],< 25,< 25
COc1ncc(-c2cc3c(n4cnnc24)NCc2c(F)ccc4c2[C@H](CO4)CO3)cn1 [Example 30],100 to 500,
CS(=O)(=O)c1ccc(-c2cc3c(n4cnnc24)NCc2c(F)ccc4c2C(CO4)CO3)cc1 (stereo not shown) [Example 36],50 to 100,
Cc1cc(C#N)ccc1-c1cc2c(n3cnnc13)NCc1c(F)ccc3c1[C@H](CO3)CO2 [Example 49],50 to 100,
Cn1nc(C(F)(F)F)cc1-c1cc2c(n3cnnc13)NCc1c(F)ccc3c1[C@H](CO3)CO2 [Example 115],< 25,50 to 100
